Measurements from US6034134A, “1-Amino-alkylcyclohexane NMDA receptor antagonists” (Merz + Co. GmbH & Co., priority 1998, dated 2000).
Structures can show the parent of a compound that is named as a salt. Where two headings read alike, the source gives them in different places.

Assays:
cortical neurones = experiment: Excitotoxicity: glutamate toxicity in cultured cortical neurones (MTT); format: cell-based, rat; conditions: Rattus norvegicus, Cortical neurone
Description: Cortical neurones were obtained from cerebral cortices of 17/18 day old fetal rats (Wistar), in general following the dissociation procedure described by. After short trypsinization and gentle trituration with fire-polished Pasteur pipettes, the cell suspension was washed by centrifugation. Cells were suspended in serum-free Neurobasal medium with B27 supplement (GIBCO) before plating onto poly-L-lysine (Sigma; 0.2 mg/ml, 20 h, 4° C.) and laminin (Sigma; 2 μg/ml, 1 h, 37° C.)-coated 96-well plates (Falcon, Primaria) at a density of 5×10^4 cells/well. Cortical neurones were maintained at 37° C. in humidified 10% CO2 /90% air. […] The medium was changed first after 4 days in vitro and then every 4 days by replacing 2/3 of the medium with astrocyte-conditioned medium. Cortical neurones between day 12 and 14 in culture were used for the experiments.
New-born rat astrocytes were isolated non-enzymatically according to the method of [24]. Briefly, both hemispheres were dissected from 2-day-old rats, passed through an 80 μm gauze, and triturated with Pasteur pipettes. Cell suspension was made in Dulbecco's modified essential medium (DMEM, Gibco) supplemented with 10% fetal calf serum (FCS, Hyclone), 2 mM glutamine (Gibco) and 50 μg/ml gentamycin and transferred into untreated, plastic culture flasks (Corning; […]). Two days after plating the flasks were shaken for 10 minutes on a rotary platform (150 U/min) to remove microglial cells. The cultures were grown to confluency within 14 days, and the culture medium was changed twice weekly. Thereafter, the glial monolayers were extensively washed with serum-free Neurobasal medium (Gibco) to remove the serum. Flasks were then shaken several times to remove oligodendrocytes and neurones. To obtain conditioned medium from primary astrocytes, the cultures were incubated with fresh Neurobasal medium supplemented with B27 andglutamine. Every 2-3 days the conditioned medium was collected and replaced by fresh medium up to 4 times.
Exposure to EAA was performed in serum-free Neurobasal medium containing 100 μM glutamate and the drug to be tested. After 20 h of incubation, the cytotoxic effect was morphologically examined under a phase contrast microscope and biochemically quantified by measuring cell viability with the MTT test (Promega). This calorimetric assay measures the reduction of a tetrazolium component (MTT) into an insoluble formazan product by the mitochondria of living cells. After incubation of the cortical neurones with the dye solution for approximately 1-4 hours, a solubilization solution was added to lyse the cells and solubilize the colored product (incubation overnight at 37° C., 10% CO2, 90% RH). These samples were then read using an Elisa plate reader (Thermomax, MWG Biotech) at a wavelength of 570 nm. The amount of color produced was directly proportional to the number of viable cells.
(§1) IC50 s in patch clamp, excitotoxicity, and binding studies were calculated according to the four parameter logistic equation using the Grafit computer program (Erithacus Software, England). Ki value for binding studies were then determined according to Cheng and Prusoff. Binding values presented are means±SEM of 3-5 determinations (each performed in duplicate). […] Pearson product moment correlation analysis (Sigma Stat, Jandel Scientific) was used to compare in vitro potencies and in vivo anticonvulsant activity.

[1] = Traction reflex test (myorelaxant action) in mice, therapeutic index versus MES; format: in vivo; conditions: ED50 for traction reflex impairment divided by ED50 for MES; for TI Tract: 30 min
Description: (§2) NMR female mice (18-28 g) housed 5 per cage were used for the maximal electroshock (MES) and motor impairment tests. […] All compounds were dissolved in 0.9% saline.
(§3) The MES test was performed together with tests for myorelaxant action (traction reflex) and motor coordination (rotarod). For the traction reflex test mice were placed with their forepaws on a horizontal rod and were required to place all 4 paws on the wire within 10 seconds. To test ataxia (motor coordination) mice were placed on rotarod (5 rpm) and were required to remain on the rod for 1 minute. […] These tests were followed by MES (100 Hz, 0.5 second shock duration, 50 mA shock intensity, 0.9 ms impulse duration, Ugo Basile) applied through corneal electrodes. The presence of tonic convulsions was scored (tonic extension of hind paws with minimum angle to the body of 90°). The aim was to obtain ED50 s for all parameters scored (anticonvulsive activity and motor side effects) with use of the Litchfield Wilcoxon test for quantal dose responses. Division of the ED50 for side effects (ataxia or myorelaxation) by the ED50 for antagonism of electroshock convulsions was used as a therapeutic index (TI). […]

[2] = Maximal electroshock (MES)-induced convulsions in mice; format: in vivo; conditions: for ED50: Mus musculus, ip, 0.5 h, read-out: MES ED50
Description: as §2, §3

NMDA receptor = experiment: [3H]-(+)-MK-801 binding to rat cortical membranes; conditions: for Ki: read-out: MK-801 Ki, Table 9, Cheng-Prusoff with Kd for MK-801 of […]; for IC50: read-out: [3H] MK-801 IC50, Table 7, footnote calls the values Ki
Description: Male Sprague-Dawley rats (200-250 g) were decapitated and their brains were removed rapidly. The cortex was dissected and homogenized in 20 volumes of ice-cold 0.32 M sucrose using a glass-Teflon homogenizer. The homogenate was centrifuged at 1000 ×g for 10 minutes. The pellet was discarded and the supernatant centrifuged at 20,000 ×g for 20 minutes. The resulting pellet was re-suspended in 20 volumes of distilled water and centrifuged for 20 minutes at 8000 ×g. Then the supernatant and the buffy coat were centrifuged three times (48,000 ×g for 20 minutes) in the presence of 50 mM Tris-HCl, pH 8.0. All centrifugation steps were carried out at 4° C. After resuspension in 5 volumes of 50 mM Tris-HCl, pH 8.0 the membrane suspension was frozen rapidly at -80° C. On the day of assay the membranes were thawed and washed four times by resuspension in 50 mM Tris-HCl, pH 8.0 and centrifugation at 48,000 ×g for 20 minutes. The final pellet was suspended in assay buffer. The amount of protein in the final membrane preparation was determined according to the method of Lowry with some modifications. The final protein concentration used for our studies was between 250-500 μg/ml.
Membranes were re-suspended and incubated in 50 mM Tris-HCl, pH 8.0. […] Incubations were terminated using a Millipore filter system. The samples were rinsed three times with 2.5 ml ice cold assay buffer over glass fiber filters obtained from Schleicher & Schuell under a constant vacuum. Filtration was performed as rapidly as possible. Following separation and rinse, the filters were placed into scintillation liquid (5 ml; Ultima Gold) and radio activity retained on the filters was determined with a conventional liquid scintillation counter (Hewlett Packard, Liquid Scintillation Analyser).
as §1

[3] = Table 7, 100 μM glutamate, 20 h, read-out: Glut. Tox. IC50
[4] = Table 9, 100 μM glutamate, read-out: Glut Tox IC50
[5] = Table 7, mice, i.p., 30 min before
[6] = Table 8, mice, i.p., 95% confidence limits in parentheses

For `CCC1(C)CC(C)(C)CC(C)(N)C1` (stereo not drawn) [Mrz 2/615, 1-amino-1,3,5,5-tetramethyl-3-ethylcyclohexane], the IC50 (cortical neurones; [3]) was 2.3 µM, the IC50 (cortical neurones; [4]) was 2.29 µM and the “TI Tract” value [1] was 2.5. It also gave an ED50 [2, 5] of 6.1 mg/kg, an ED50 [2, 6] of 6.1 mg/kg and a Ki (NMDA receptor) of 2.42 µM. It also gave an IC50 (NMDA receptor) of 2.5 µM.

With `C[C@H]1CCC[C@@](C)(N)C1` (relative stereo) [Mrz 2/631] the IC50 (cortical neurones; [3]) was greater than 100 µM, the IC50 (cortical neurones; [4]) was greater than 100 µM and the ED50 [2, 5] was 30 mg/kg. The ED50 [2, 6] was 30 mg/kg, the Ki (NMDA receptor) was 65.3 µM and the IC50 (NMDA receptor) was 69.7 µM.

In the case of `CCCC1(N)CC(C)(C)CC(C)(C)C1` [Mrz 2/601, 1-amino-1-propyl-3,3,5,5-tetramethylcyclohexane], the IC50 (cortical neurones; 20 h, read-out: Glut. Tox. IC50) is reported as 3.5 µM, the IC50 (cortical neurones; read-out: Glut Tox IC50) is reported as 3.5 µM and the “TI Tract” value [1] is reported as 1.5. The ED50 [2] was 15.6 mg/kg, the “MES ED50” value ([2]; Table 8, mice, i.p., 95% confidence limits in parentheses, 30 min) was 15.6 (10.4-23.4) mg/kg and the Ki (NMDA receptor) was 8.09 µM. For the same compound, the IC50 (NMDA receptor) was 7.4 µM.

With `CC1(C)CC(CN)CC(C)(C)C1.Cl` [Mrz 2/580, 3,3,5,5-tetramethylcyclohexylmethylamine hydrochloride] the IC50 (cortical neurones; [3]) was 5.6 µM, the IC50 (cortical neurones; [4]) was 5.6 µM and the “TI Tract” value [1] was 1.6. The ED50 [2, 5] was 27.3 mg/kg, the ED50 [2, 6] was 27.3 mg/kg and the Ki (NMDA receptor) was 17.8 µM. It also gave an IC50 (NMDA receptor) of 15.9 µM.

With `CC[C@]1(C)C[C@@H](C)C[C@@](C)(N)C1` (relative stereo) [Mrz 2/624] the IC50 (cortical neurones; [3]) was 2.7 µM, the IC50 (cortical neurones; [4]) was 2.7 µM and the “TI Tract” value [1] was 0.9. For the same compound, the ED50 [2, 5] was 47.2 mg/kg, the ED50 [2, 6] was 47.2 mg/kg and the Ki (NMDA receptor) was 15.1 µM. It also gave an IC50 (NMDA receptor) of 15.4 µM.

For `CC[C@@H]1CC(C)(C)C[C@@](C)(N)C1` (relative stereo) [Mrz 2/633], the IC50 (cortical neurones; [3]) was 5.4 µM, the IC50 (cortical neurones; [4]) was 6.1 µM and the “TI Tract” value [1] was 2.4. For the same compound, the ED50 [2, 5] was 8.78 mg/kg, the ED50 [2, 6] was 8.78 mg/kg and the Ki (NMDA receptor) was 5.18 µM. For the same compound, the IC50 (NMDA receptor) was 6.8 µM.

`CC[C@H]1CC(C)(C)C[C@@](C)(N)C1` [MRZ 2/683, (1S, 5S) cis-3-Ethyl-1,5,5-trimethylcyclohexylamine hydrochloride hydrate] showed an IC50 (cortical neurones; [4]) of 5.08 µM, a selectivity ratio at 0.5 h ([1]; mouse, in vivo, ip, read-out: TI Tract) of 2.7 and an ED50 [2, 6] of 12.2 mg/kg. The Ki (NMDA receptor) was 4.44 µM.

`CC(C)(N)CC1CC(C)(C)CC(C)(C)C1` [Mrz 2/645] gave an IC50 (cortical neurones; [3]) greater than 100 µM, an IC50 (cortical neurones; [4]) greater than 100 µM and an ED50 [2, 5] of 65.6 mg/kg. For the same compound, the ED50 [2, 6] was 65.6 mg/kg, the Ki (NMDA receptor) was 60.2 µM and the IC50 (NMDA receptor) was 85.1 µM.

`CCC[C@@H]1CC(C)(C)C[C@](C)(N)C1` (relative stereo) [Mrz 2/634] gave an IC50 (cortical neurones; [3]) of 19 µM, an IC50 (cortical neurones; [4]) of 19 µM and an ED50 [2, 5] greater than 30 mg/kg. For the same compound, the ED50 [2, 6] was greater than 30 mg/kg, the Ki (NMDA receptor) was 13.4 µM and the IC50 (NMDA receptor) was 15.5 µM.

With `CC[C@H]1CCC[C@@](C)(N)C1` (relative stereo) [Mrz 2/630] the IC50 (cortical neurones; [3]) was greater than 100 µM, the IC50 (cortical neurones; [4]) was greater than 100 µM and the ED50 [2, 5] was greater than 30 mg/kg. For the same compound, the ED50 [2, 6] was greater than 30 mg/kg, the Ki (NMDA receptor) was 49.1 µM and the IC50 (NMDA receptor) was 44.3 µM.

`CC1(N)CCCCC1` [Mrz 2/641] showed an IC50 (cortical neurones; [3]) greater than 100 µM, an IC50 (cortical neurones; [4]) greater than 100 µM and an ED50 [2, 5] greater than 50 mg/kg. For the same compound, the ED50 [2, 6] was greater than 50 mg/kg, the Ki (NMDA receptor) was 143 µM and the IC50 (NMDA receptor) was 184 µM.
